Measured values as given in PubChem BioAssay (NCI).
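All cell lines were grown in 96-well plates and treated with compound for 48 hours. The concentration for full growth arrest is given as TGI.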

Assays:
Test in all cases: NCI tumour cell line growth inhibition, 48 h
SK-MEL-28 melanoma = tested on: SK-MEL-28 melanoma
SF-539 CNS = tested on: SF-539 CNS
HL-60(TB) leukemia = tested on: HL-60(TB) leukemia
CCRF-CEM leukemia = tested on: CCRF-CEM leukemia
SNB-19 CNS = tested on: SNB-19 CNS
DU-145 prostate = tested on: DU-145 prostate
RXF 393 renal = tested on: RXF 393 renal
SNB-75 CNS = tested on: SNB-75 CNS
UO-31 renal = tested on: UO-31 renal
RPMI-8226 leukemia = tested on: RPMI-8226 leukemia
HS 578T breast = tested on: HS 578T breast

| Structure (SMILES) | TGI (SK-MEL-28 melanoma) | TGI (SF-539 CNS) | TGI (HL-60(TB) leukemia) | TGI (CCRF-CEM leukemia) | TGI (SNB-19 CNS) | TGI (DU-145 prostate) | TGI (RXF 393 renal) | TGI (SNB-75 CNS) | TGI (UO-31 renal) | TGI (RPMI-8226 leukemia) | TGI (HS 578T breast) |
| --- | --- | --- | --- | --- | --- | --- | --- | --- | --- | --- | --- |
| CC1=C(C)Cc2c(O)ccc(O)c2C1 | 25 µM | 35.1 µM | 23.5 µM | 16.2 µM | > 100 µM | 39.7 µM | 30 µM | 31.3 µM | 30.6 µM | 27.2 µM | 33.6 µM |
| O=C1Oc2cc(O)cc(/C=C/c3ccc(O)cc3)c2[C@@]12c1c(O)cc(O)cc1OC2c1cccc(O)c1 (stereo not given in full) | > 100 µM | > 100 µM | 97.9 µM | 56.5 µM | 91.6 µM | > 100 µM | 94.3 µM | > 100 µM | > 100 µM | 37.1 µM | 56.6 µM |
| COC(=O)c1ccccc1C1CN=NC12Cc1cc(C)ccc1C2=O (stereo not given) | > 100 µM | > 100 µM | > 100 µM | > 100 µM | > 100 µM | > 100 µM | > 100 µM | > 100 µM | > 100 µM | > 100 µM | > 100 µM |
| CCOC(=O)c1ccc(N=c2sc3ccccc3nc2Nc2ccc(C(=O)OCC)cc2)cc1 | > 100 µM | > 100 µM | > 100 µM | > 100 µM | > 100 µM | > 100 µM | > 100 µM | > 100 µM | > 100 µM | > 100 µM | > 100 µM |
| CCOC(=O)C(SCCO)C(C(=O)OCC)n1ccc(=O)[nH]c1=O (stereo not given) | > 86.7 µM | > 71.6 µM | 12 µM | 10.5 µM | > 100 µM | > 100 µM | 81.4 µM | > 95.9 µM | > 100 µM | 47.8 µM | > 100 µM |
| CC(=O)OCc1ccc2oc(=O)c(C(=O)Oc3ccccc3)cc2c1 | > 100 µM | > 100 µM | > 100 µM | > 100 µM | > 100 µM | > 100 µM | > 100 µM | > 100 µM | > 100 µM | > 100 µM | > 100 µM |
| COc1cc(CNNC(N)=S)cc(OC)c1OC | > 100 µM | > 100 µM | > 100 µM | > 100 µM | > 100 µM | > 100 µM | > 100 µM | > 100 µM | > 100 µM | > 100 µM | > 100 µM |
| Cc1ccc(S(=O)(=O)NNCNC(=O)c2ccccc2)cc1 | > 100 µM | > 100 µM | 48.2 µM | 63.2 µM | > 100 µM | > 100 µM | > 100 µM | > 100 µM | > 100 µM | > 100 µM | > 100 µM |
| Cc1cc(=O)oc2c(CNC(Cc3ccccc3)C(=O)O)c(O)ccc12 (stereo not given) | > 100 µM | > 100 µM | > 100 µM | > 100 µM | > 100 µM | > 100 µM | > 100 µM | > 100 µM | > 100 µM | > 100 µM | > 100 µM |
| N[C@H]1CCCC[C@@H]1N1C(=O)c2ccccc2C1(O)c1ccc(Cl)cc1 (stereo not given in full) | 10.4 µM | 25 µM | 20 µM | 16.7 µM | 27.6 µM | 25.9 µM | 20.4 µM | 7.98 µM | 24.2 µM | 13.6 µM | 54.4 µM |
| CC1=C(C(=O)Nc2ccccc2)C2(CCCCC2)C(C#N)=C(SCC(=O)Nc2ccc(Br)cc2)N1 | > 26.5 µM | 32.9 µM | 13.7 µM | 7.02 µM | > 32.7 µM | > 100 µM | 14.1 µM | 30.3 µM | 2.76 µM | 7.11 µM | 44.9 µM |
| O=C(NCCCCCCNC(=O)c1cc(-c2ccccc2)nc2ccccc12)c1cc(-c2ccccc2)nc2ccccc12 | > 100 µM | > 100 µM | > 100 µM | > 100 µM | > 100 µM | > 100 µM | > 100 µM | > 100 µM | > 100 µM | > 100 µM | > 100 µM |
| CC(C)/C(Cl)=N\OC(=O)Nc1cccc(Cl)c1 | 35.4 µM | 36.8 µM | 3.3 µM | 5.05 µM | > 100 µM | 51.2 µM | 32.5 µM | 33.2 µM | 33.3 µM | 25 µM | 72.8 µM |
| C=C(Br)CNC(=O)CCC(=O)NCC(=C)Br | > 100 µM | > 100 µM | > 100 µM | > 100 µM | > 100 µM | > 100 µM | > 100 µM | > 100 µM | > 100 µM | > 100 µM | > 100 µM |
| Cc1ccc(NC(=O)c2cc(S(=O)(=O)Nc3nc4ncccc4[nH]3)c(SSc3cc(Cl)c(C(=O)Nc4ccc(C)cc4)cc3S(=O)(=O)Nc3nc4ncccc4[nH]3)cc2Cl)cc1 | > 100 µM | > 100 µM | > 100 µM | > 100 µM | > 100 µM | > 100 µM | > 100 µM | > 100 µM | > 100 µM | > 100 µM | > 100 µM |
| CC(=O)Nc1ccc(C2SCc3nc4ccccc4n32)cc1 (stereo not given) | > 100 µM | > 100 µM | > 100 µM | > 100 µM | > 100 µM | > 100 µM | > 100 µM | > 100 µM | > 100 µM | > 100 µM | > 95.5 µM |
| CCC(=O)Nc1ccc(N2C(=O)C(Cl)C2c2ccc(SC)cc2)cc1 (stereo not given) | > 100 µM | > 100 µM | > 100 µM | > 100 µM | > 100 µM | > 100 µM | > 100 µM | > 100 µM | > 100 µM | > 100 µM | > 100 µM |
| Cc1ccnc(NC(NC(=O)c2ccccc2)(C(F)(F)F)C(F)(F)F)c1 | > 100 µM | > 100 µM | > 100 µM | > 100 µM | > 100 µM | > 100 µM | > 100 µM | > 100 µM | > 100 µM | > 100 µM | > 100 µM |
| OCCNCNc1nc(NCNCCO)nc(N(CNCCO)CNCCO)n1 | 52.6 µM | 41.3 µM | 63.8 µM | > 69.7 µM | 38.1 µM | 44.3 µM | 31.1 µM | 50.6 µM | > 73.9 µM | > 68.2 µM | > 78.8 µM |
| N#Cc1cnc(N)nc1NCC1(CO)CC(CCc2ccccc2)C1 (stereo not given) | > 100 µM | > 100 µM | > 100 µM | > 100 µM | > 100 µM | > 100 µM | > 100 µM | > 83.1 µM | > 100 µM | > 100 µM | > 100 µM |
| C=CC(Cl)(CBr)CCC(Br)C(C)(C)Cl (stereo not given) | 33.1 µM | 30.5 µM | 19.3 µM | 29 µM | 32.8 µM | 42.8 µM | 31.2 µM | 68.8 µM | 29.3 µM | 29.5 µM | > 100 µM |
| CCCCCCCCCCNC(=O)CCC(NC(=O)c1ccc(N(C)Cc2cnc3nc(N)nc(N)c3n2)cc1)C(=O)NCCCCCCCCCC (stereo not given) | 23.6 µM | 15.3 µM | > 25.3 µM | 5.9 µM | 31.7 µM | > 70.2 µM | 19.3 µM | 32.1 µM | > 100 µM | > 70.4 µM | 20.8 µM |
| O=[N+]([O-])c1ccc(N/N=C/c2ccc(OCCCCCCCCCCCO)cc2)c([N+](=O)[O-])c1 | 32.5 µM | 4.22 µM | 31.2 µM | > 44.5 µM | 27.1 µM | > 95.9 µM | 4.6 µM | 4.27 µM | 36.1 µM | > 100 µM | 6.5 µM |
| CN(C)c1nc(Cl)c2c(-c3ccccc3)c(-c3ccccc3)oc2n1 | > 100 µM | > 100 µM | 36 µM | > 100 µM | > 100 µM | > 100 µM | 45.2 µM | > 100 µM | > 100 µM | 60.8 µM | > 100 µM |
| Cc1nc2c(=O)n(C)ncc2[nH]1 | > 100 µM | > 100 µM | > 100 µM | > 100 µM | > 100 µM | > 100 µM | > 100 µM | > 100 µM | > 100 µM | > 100 µM | > 100 µM |
